Laboratory results as given in patent US20060094664A1, “Deoxycholic acid derivatives for the treatment of acute dysfunctions of portal and hepatic venous circulation” (priority 2002, published 2006).
Marks after values point to notes of the source that are not given here.

Tests used:
[1] = tested on: Wistar rats subjected to ligature of bile duct; assay: Hepatic fibrosis evaluated by an immunocytochemical method in bile duct ligated rats; type: in vivo, rat; conditions: a week treatment in bile duct ligated rats
Source text: (§1) Twenty one Wistar rats were divided in three groups of 7 animals each and then subjected to ligature of bile duct. Within three weeks following the ligature, the animals were left on rest. As a consequence of the bile duct ligature, the animals developed dysfunctions of the hepatic and portal venous circulation. At the end of the third week, each group underwent the following weekly treatment protocol: • Group 1: control group treated with carrier (1% w/v water suspension of carboxymethylcellulose); • Group 2: treated with NO-urso at a dose of 28 mg/kg (0.04 mmol/kg), twice a day; • Group 3: treated with ursodeoxycholic acid (urso in table) at a dose of 15 mg/kg (0,04 mmol/kg), twice a day.

[2] = tested on: Wistar rats subjected to ligature of bile duct; assay: Portal and systemic pressure after a week treatment in rats with bile duct ligature; type: in vivo, rat; conditions: for Portal pressure After a week treatment: bile duct ligated Wistar rats, 0.04 mmol/kg twice a day intragastric for one week
Source text: as §1, with “day. The rested compounds have been administered by intragastric cannula in 1% water suspension of carboxymethylcellulose. At the end of the treatment (fourth week) the animals were anaesthetized with urethane and then systemic pressure (MAP) and portal pressure (PP) were monitored by catheterisation both of the carotid and portal vein. The animal liver was then continuously perfused with Krebs solution (40 ml/min) balanced with O2/CO2 (95%-5%) using a peristaltic pump (Gilson) In this way the pharmacological effect of both tested compounds has been evaluated.” for “day.”

[3] = tested on: rat liver perfused with norepinephrine solution; assay: Perfused rat liver: intrahepatic constriction induced by norepinephrine, infusion of tested compound; type: in vivo; conditions: for Portal pressure % increase after NE infusion: liver perfused with norepinephrine 1 μM, then single infusion of 1 mM solution of tested compound
Experimental: At the end of the treatment (fourth week) the animals were anaesthetized with urethane and then systemic pressure (MAP) and portal pressure (PP) were monitored by catheterisation both of the carotid and portal vein. The animal liver was then continuously perfused with Krebs solution (40 ml/min) balanced with O2/CO2 (95%-5%) using a peristaltic pump (Gilson) In this way the pharmacological effect of both tested compounds has been evaluated. The rat liver was then firstly perfused with norepinephrine solution (1 μM) in order to induce an intrahepatic circulation constriction. Afterwards, in groups 2 and 3 a single infusion with a 1 mM solution of each of the tested compounds was carried out and portal pressure variations have been monitored.

Row | influence on systemic hemodynamic parameters (systemic pressure, cardiac frequency) ([2]; a week treatment in bile duct ligated rats) | Systemic hemodynamic parameters: Systemic pressure (MAP) ([2]; bile duct ligated rats after a week treatment, 0.04 mmol/kg twice a day, carotid catheterisation, in mmHg (unit assumed)) | Systemic hemodynamic parameters: Cardiac frequency ([2]; bile duct ligated rats after a week treatment, 0.04 mmol/kg twice a day, in beats/min (unit assumed)) | SMILES | influence on hepatic fibrosis [1] | influence on hepatic fibrosis ([1]; listed as No-urso) | portal pressure reduction ([2]; after the week treatment, perfusion rate 40 ml/min, with respect to controls) | Portal pressure After a week treatment ([2]; perfusion rate 40 ml/min) | influence on systemic hemodynamic parameters (systemic pressure, cardiac frequency) ([2]; rat, in vivo) | increase of intrahepatic resistance induced by norepinephrine ([3]; 500% increase determined by NE infusion, NO-urso p<0.001) | Portal pressure % increase after NE infusion [3] | portal pressure increase with respect to controls ([2]; after the week treatment, perfusion rate 40 ml/min)
1 |  |  |  | COc1cc(/C=C/C(=O)OCCCCO[N+](=O)[O-])ccc1OC(=O)CC[C@@H](C)[C@H]1CC[C@H]2[C@@H]3[C@@H](O)C[C@@H]4C[C@H](O)CC[C@]4(C)[C@H]3CC[C@]12C [NO-urso, (3α,5β,7β)-3,7-dihydroxycholan-24-oic Acid 2-methoxy-4[3-[4-(nitrooxy)butoxy]-3-oxo-1-propenyl]phenyl Ester] | does not modify | do not influence | 3 mmHg | 14* mmHg | do not influence | significantly reduced | 180% | 
2 | do not influence | 95 ± 12 | 372 ± 41 | C[C@H](CCC(=O)O)[C@H]1CC[C@H]2[C@@H]3[C@@H](O)C[C@@H]4C[C@H](O)CC[C@]4(C)[C@H]3CC[C@]12C [Urso, ursodeoxycholic acid] |  |  |  | 19 mmHg |  |  | 400% | 2 mmHg
